# Legend:
# [1] = Phase Ib open-label multi-center study, safety and tolerability (adverse events); assay type: in vivo, human; settings: 240 mg BID with FOLFIRI, with and without bevacizumab; N = 18; possibly/probably/definitely related
# Method: The effects of 2-acetylnaphtho[2,3-b]furan-4,9-dione in combination with FOLFIRI in patients with advanced gastrointestinal cancer, including CRC and gastric cancer, were studied in phase lb open-label, multi-center studies. In one phase lb open label, multi-center clinical study, the safety, tolerability, and preliminary anti-tumor activity of 2-acetylnaphtho[2,3-b]furan-4,9-dione in combination with FOLFIRI, with and without bevacizumab, were assessed in adult patients with advanced gastrointestinal cancer, including CRC and gastric cancer. In addition, the pharmacokinetic profile and the pharmacodynamics (biomarkers) of 2-acetylnaphtho[2,3-b]furan-4,9-dione in combination with FOLFIRI, with and without bevacizumab, were studied, and the recommended phase II dose (RP2D) of 2-acetylnaphtho[2,3-b]furan-4,9-dione and FOLFIRI, with or without bevacizumab, were evaluated.
# Patients received continuous oral administration of 2-acetylnaphtho[2,3-b]furan-4,9-dione twice daily in 28 day cycles. A FOLFIRI regimen was administered (with or without bevacizumab depending on patient) every 14 days. Specifically, 2-acetylnaphtho[2,3-b]furan-4,9-dione was administered at a dose of 240 mg BID in combination with FOLFIRI (5-FU 400 mg/m^2 bolus with 2400 mg/m^2, irinotecan 180 mg/m^2, and leucovorin 400 mg/m^2 infusion) with or without bevacizumab 5 mg/kg, administered bi-weekly until progression of disease, unacceptable toxicity, or other discontinuation criterion was met.
# p-Stat3 = assay: Cancer stemness biomarker immunofluorescence in cancer xenograft tumors: p-Stat3; assay type: in vivo, mouse xenograft
# Method: (§1) The effects of 2-acetylnaphtho[2,3-b]furan-4,9-dione, a compound of formula (I), on cancer stem cell markers was examined in cancer xenograft models with and without irinotecan. Human cancer cells were subcutaneously implanted into the right flank of 5-7 weeks old female athymic nude mice. When tumor size reached 200 mm^3, animals were treated with 2-acetylnaphtho[2,3-b]furan-4,9-dione, irinotecan, or a combination of 2-acetylnaphtho[2,3-b]furan-4,9-dione and irinotecan. Tumors were harvested after first dosing.
# (§2) The harvested tissues were fixed in 3.7% neutral buffered formaldehyde at 4° C. for overnight. The paraffin was embedded, cut to about 5 microns, and affixed onto positively-charged slides. After being baked and de-paraffinized, the slides with tumor or control tissues were incubated in 10 mM Sodium Citrate (pH 6.0) for 10 minutes. After antigen retrieval, slides were probed with primary antibodies P-STAT3 (rabbit, Cell Signaling, 1:100), 13-Catenine (mouse, Santa Cruz, 1:400) at 4° C. overnight, and then Alexa Fluor fluorescent dyes-conjugated secondary antibodies (1:500, Invitrogen). After mounting, the slides with ProLong mounting medium with DAPI (Invitrogen) were examined under a Zeiss fluorescence microscope with 20× objective, and analyzed with Zen software.
# β-catenin = assay: Cancer stemness biomarker immunofluorescence in cancer xenograft tumors: β-catenin; assay type: in vivo
# Method: as §1, §2
# [2] = added to irinotecan, cancer xenograft tumor model, FIG. 6
# [3] = alone, human colon cancer xenograft tumor (SW480) in nude mice, FIG. 4
smiles,measurement,setting,value
"CC(=O)c1cc2c(o1)C(=O)c1ccccc1C2=O [2-acetylnaphtho[2,3-b]furan-4,9-dione]","Dry Mouth Grade 2, percent of total subjects",[1],5.6%
same,"Dry Mouth Grade 3, number of subjects",[1],0
same,"Dry Mouth Grade 3, percent of total subjects",[1],0.0%
same,"Dysgeusia Grade 1, number of subjects",[1],5
same,"Dysgeusia Grade 1, percent of total subjects",[1],27.8%
same,"Dysgeusia Grade 2, number of subjects",[1],0
same,"Dysgeusia Grade 2, percent of total subjects",[1],0.0%
same,"Dysgeusia Grade 3, number of subjects",[1],0
same,"Dysgeusia Grade 3, percent of total subjects",[1],0.0%
same,"Fatigue Grade 1, number of subjects",[1],12
same,"Fatigue Grade 1, percent of total subjects",[1],66.7%
same,"Fatigue Grade 2, number of subjects",[1],10
same,"Fatigue Grade 2, percent of total subjects",[1],55.6%
same,"Fatigue Grade 3, number of subjects",[1],3
same,"Fatigue Grade 3, percent of total subjects",[1],16.7%
same,"Flatulence Grade 1, number of subjects",[1],2
same,"Flatulence Grade 1, percent of total subjects",[1],11.1%
same,"Flatulence Grade 2, number of subjects",[1],1
same,"Flatulence Grade 2, percent of total subjects",[1],5.6%
same,"Flatulence Grade 3, number of subjects",[1],0
same,"Flatulence Grade 3, percent of total subjects",[1],0.0%
same,"Nausea Grade 1, number of subjects",[1],14
same,"Nausea Grade 1, percent of total subjects",[1],77.8%
same,"Nausea Grade 2, number of subjects",[1],6
same,"Nausea Grade 2, percent of total subjects",[1],33.3%
same,"Nausea Grade 3, number of subjects",[1],0
same,"Nausea Grade 3, percent of total subjects",[1],0.0%
same,"Neutropenia Grade 1, number of subjects",[1],3
same,"Neutropenia Grade 1, percent of total subjects",[1],16.7%
same,"Neutropenia Grade 2, number of subjects",[1],2
same,"Neutropenia Grade 2, percent of total subjects",[1],11.1%
same,"Neutropenia Grade 3, number of subjects",[1],0
same,"Neutropenia Grade 3, percent of total subjects",[1],0.0%
same,"Platelet Count Grade 1, number of subjects",[1],2
same,"Platelet Count Grade 1, percent of total subjects",[1],11.1%
same,"Platelet Count Grade 2, number of subjects",[1],0
same,"Platelet Count Grade 2, percent of total subjects",[1],0.0%
same,"Platelet Count Grade 3, number of subjects",[1],0
same,"Platelet Count Grade 3, percent of total subjects",[1],0.0%
same,"Urine Discolorization Grade 1, number of subjects",[1],4
same,"Urine Discolorization Grade 1, percent of total subjects",[1],22.2%
same,"Urine Discolorization Grade 2, number of subjects",[1],0
same,"Urine Discolorization Grade 2, percent of total subjects",[1],0.0%
same,"Urine Discolorization Grade 3, number of subjects",[1],0
same,"Urine Discolorization Grade 3, percent of total subjects",[1],0.0%
same,"Vomiting Grade 1, number of subjects",[1],11
same,"Vomiting Grade 1, percent of total subjects",[1],61.1%
same,"Vomiting Grade 2, number of subjects",[1],3
same,"Vomiting Grade 2, percent of total subjects",[1],16.7%
same,"Vomiting Grade 3, number of subjects",[1],0
same,"Vomiting Grade 3, percent of total subjects",[1],0.0%
same,"Weight Loss Grade 1, number of subjects",[1],2
same,"Weight Loss Grade 1, percent of total subjects",[1],11.1%
same,"Weight Loss Grade 2, number of subjects",[1],0
same,"Weight Loss Grade 2, percent of total subjects",[1],0.0%
same,"Weight Loss Grade 3, number of subjects",[1],0
same,"Weight Loss Grade 3, percent of total subjects",[1],0.0%
same,irinotecan-enhanced staining for stem cell marker p-Stat3,p-Stat3; [2],attenuated
same,expression of p-Stat3 stem cell marker,p-Stat3; [3],dramatically reduced
same,irinotecan-enhanced staining for stem cell marker β-catenin,β-catenin; [2],attenuated
same,expression of β-catenin stem cell marker,β-catenin; [3],dramatically reduced
